Marks after values point to notes of the source that are not given here.
How the values were obtained:
monocytes [1] = experiment: PGE2 production by monocytes, specific ELISA; format: cell-based, human
Description: In addition to the expression of PGS-2, the production of PGE2 by monocytes from these same control and autoimmune individuals was examined.

PGS-2 mRNA = PGS-2 mRNA expression in monocytes by RT-PCR; format: cell-based, human
Protocol: RT-PCR detection of PGS-2 mRNA in human monocytes. Human peripheral blood is collected in sterile green top 10 ml tubes. Assays are preferably performed with 5 ml or more of blood. The blood is then centrifuged on a ficoll gradient for 30 minutes at 1500 rpm. Monocytes are isolated to >80% purity by adherence for 2 hours to a plastic culture surface. Cells are then cultured overnight in RMPI-1640 plus endotoxin-free fetal calf sera. The cells are harvested after 16 hours of culture by cold Ca^++/Mg^++-free PBS, the cells are counted, and viability is assessed. Monocytes cultured in 10 μg/ml LPS serve as a positive control for each sample tested. The poly mRNA is then harvested from a standard 10^5 monocytes using a kit (Quiagen). The mRNA is then reverse transcribed in a standard reaction mixture. The cDNA is then amplified by PGS-2-specific primers designed by our laboratory using a standard […] for 45 cycles. The PCR product is then run out on agarose gels with known standards and the size confirmed. β-actin is used as an internal control in these reactions. The identity of RT-PCR products were confirmed by size and Southern blotting using a PGS-2-specific labeled internal probe.
Monocytes were examined from ICA+ humans with a high risk of developing IDD, individuals with established SLE and autoimmune thyroid disease, and healthy controls. A portion of the pre-diabetic ICA+ individuals examined are enrolled in an IDD trial where they receive daily subcutaneous insulin as a preventative therapy. Monocytes of humans without autoimmune disease infrequently express PGS-2 mRNA (12%), whereas monocytes from subjects who are at high risk for the development of IDD express PGS-2 at a highly significant frequency (84%, p<0.0001).

monocytes [2] = experiment: TNFα and IL-1β in supernatants of monocytes cultured 24 hours; format: cell-based, human; conditions: monocytes cultured in vitro 24 hours
Protocol: The expression of PGS-2 can be induced by several factors including cytokines produced by monocytes such as TNFα and IL-1β. To evaluate the possibility that monocytes of pre-IDD subjects produce large quantities of IL-1 and TNFα which induces PGS-2, the levels of these cytokines were measured in supernatants of monocytes cultured in vitro for 24 hours from pre-IDD and healthy controls. […] The lower levels of these cytokines is consistent with the constitutive production of prostaglandins which suppress the production of both TNFα and IL-1β.

NOD mice [3] = experiment: Incidence of diabetes in NOD mice treated through drinking water; format: in vivo, mouse
Protocol: Blocking the activity of PGS-2 with drugs that reduce PG production can be used to prevent or slow the development of IDD disease. When NOD mice with established, active autoimmune disease are treated through their drinking water with a combination of drugs, including a PGS-1/PGS-2 inhibitor, low dose indomethacin (3 μg/ml), in conjunction with an inducible nitric oxide synthase (iNOS) inhibitor, aminoguanidine, which potentiates the effects of indomethacin, the incidence of diabetes in NOD mice drops by 42% in comparison to control animals and animals treated with either low dose indomethacin or aminoguanidine alone.
Treatment of NOD mice at a time when autoimmunity is in its final stages with high doses (15 μg/ml) of indomethacin alone reduces the incidence of diabetes from 77% to 22%.

monocytes [4] = experiment: Monokine production in monocyte culture supernatants with and without NS-398; format: cell-based, human; conditions: monocytes of healthy controls and pre-diabetic population
Description: The monocyte production of the monokines IL-1β, TNFα, IL-1RA, and IL-10 in culture supernatants from healthy controls and the pre-diabetic population in the presence and absence of the PGS-2-specific inhibitor, NS-398, have been evaluated. […] It has also been determined that, despite enhanced levels of PGS-2 and PGE2 in diabetic and pre-diabetic individuals, there is no corresponding increase in IL-10. […] Therefore, a further aspect of the subject invention is a method for detecting evidence of autoimmune disease, particularly diabetes, which comprises evaluating monocytes to determine if those monocytes have a reduced response to IL-10 with regard to PGS-2 expression. Such reduced response would be evidence of disease. In accordance with these findings, compounds that inhibit prostaglandin production can be used to modulate the production of anti-inflammatory monokines in order to limit the immune response. The spontaneous expression of PGS-2 and the production of PGE2 by pre-diabetic monocytes may influence their function, limiting their ability to produce monokines that would have a potent effect on limiting the autoimmune response to the β-cells of the islet and therefore would promote the progression to diabetes.

NOD mice [5] = experiment: PGE2 production by monocytes of NOD mice after IL-10 administration; format: in vivo, mouse; conditions: administration of IL-10

insulin
PGE2 (monocytes [1]; monocytes of ICA+/PGS-2+ subjects on insulin therapy): 5805 ± 1544 pg/mL
% PGS-2 + (PGS-2 mRNA; ICA+ pre-IDD subjects, insulin-treated, Table 6): 73.6** %
% Positive (PGS-2 mRNA) (PGS-2 mRNA; ICA+ subjects on daily subcutaneous preventative insulin, Table 2): 71%
PGS-2 mRNA or protein expression (PGS-2 mRNA; preventative insulin therapy in ICA+ subjects): does not appear to affect
TNFα and IL-1β levels, insulin-treated versus untreated pre-IDD (monocytes [2]): no significant differences

COc1ccc2c(c1)c(CC(=O)O)c(C)n2C(=O)c1ccc(Cl)cc1 [indomethacin]
development of IDD (NOD mice [3]; NOD mice treated at an early stage of disease): effectively blocks the development of IDD
incidence of diabetes (NOD mice [3]; NOD mice, autoimmunity in final stages, indomethacin alone 15 μg/ml, untreated 77%): 22%

CS(=O)(=O)Nc1ccc([N+](=O)[O-])cc1OC1CCCCC1 [NS-398]
production of PGE2 (monocytes [1]; monocytes of control and autoimmune individuals, FIG. 1): completely blocked
PGS-2 production in vitro (monocytes [1]; monocytes of individuals at high risk for IDD): effectively blocks all PGS-2 production
production of IL-1RA (monocytes [4]): promotes the production
production of IL-10 (monocytes [4]): promotes the production

B1: IL-10: monokine that tends to downregulate inflammation and immune responses (protein, UniProt P22301 19-178, looked up)
Interleukin-10: SPGQGTQSENSCTHFPGNLPNMLRDLRDAFSRVKTFFQMKDQLDNLLLKESLLEDFKGYLGCQALSEMIQFYLEEVMPQAENQDPDIKAHVNSLGENLKTLRLRLRRCHRFLPCENKSKAVEQVKNAFNKLQEKGIYKAMSEFDIFINYIEAYMTMKIRN
PGE2 production by monocytes (NOD mice [5]): does not inhibit PGE2 production

Source: patent US6953578B2, “Materials and methods for detection and treatment of immune system dysfunctions” (University of Florida Research Foundation, Inc., priority 1996, dated 2005)
